# Measurements as given in US20090069384A1, “THIENOPYRROLES USEFUL IN THE TREATMENT OF INFLAMMATION” (BIOLIPOX AB, priority 2005, published 2009).
# Target: T1, mPGES-1 (Homo sapiens, UniProt O14684)
# T1 construct: made in house; host or cells: E. coli (membrane fraction)
# T1 sequence (O14684 1-152): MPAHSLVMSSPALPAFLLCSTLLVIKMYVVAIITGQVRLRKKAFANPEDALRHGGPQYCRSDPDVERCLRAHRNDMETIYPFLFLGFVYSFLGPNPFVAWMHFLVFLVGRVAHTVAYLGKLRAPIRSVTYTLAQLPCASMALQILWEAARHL
# Experiment: mPGES-1 inhibition assay (conversion of PGH2 to PGE2, HPLC analysis)
# Type: biochemical
# Details: mPGES-1 expressed in E. coli, membrane fraction; room temperature; PGH2 substrate, 60 seconds
# Method: In the assay mPGES-1 catalyses the reaction where the substrate PGH2 is converted to PGE2. mPGES-1 is expressed in E. coli and the membrane fraction is dissolved in 20 mM NaPi-buffer pH 8.0 and stored at −80° C. […] The stop solution consists of H2O/MeCN (7/3), containing FeCl2 (25 mM) and HCl (0.15 M). The assay is performed at room temperature in 96-well plates.
# The following is added chronologically to each well: • 1. 100 uL mPGES-1 in KPi-buffer with glutathione. Total protein concentration: 0.02 mg/mL. • 2. 1 μL inhibitor in DMSO. Incubation of the plate at room temperature for 25 minutes. • 3. 4 μL of a 0.25 mM PGH2 solution. Incubation of the plate at room temperature for 60 seconds. • 4. 100 μL stop solution. • 180 μL per sample is analyzed with HPLC.
row,IC50 [µM],Structure (SMILES)
1,0.39,"CC(C)(C)c1ccc(-c2cc3c(s2)c(-c2ccc(C(C)(C)C)cc2)c(C(=O)O)n3Cc2cccc(Cl)c2)cc1 [Example 2, 2,6-Bis-(4-tert-butylphenyl)-4-(3-chlorobenzyl)thieno[3,2-b]pyrrole-5-carboxylic Acid]"
2,1.3,"Cc1ccc(-c2cc3c(s2)c(I)c(C(=O)O)n3Cc2cccc(Cl)c2)s1 [Example 4, 4-(3-Chlorobenzyl)-6-iodo-2-(5-methylthien-2-yl)thieno[3,2-b]pyrrole-5-carboxylic Acid]"
3,5.1,"Cc1ccc(-n2c(C(=O)O)cc3sc(-c4ccc(OC(C)C)cc4)cc32)cc1[N+](=O)[O-] [Example 28, 2-(4-Isopropoxyphenyl)-4-(4-methyl-3-nitrophenyl)thieno[3,2-b]pyrrole-5-carboxylic Acid]"
4,4.7,"CC(C)Oc1ccc(-c2cc3cc(C(=O)O)n(Cc4cccc(Cl)c4)c3s2)cc1 [Example 35, 6-(3-Chlorobenzyl)-2-(4-isopropoxyphenyl)-6H-thieno[2,3-b]pyrrole-5-carboxylic Acid]"
